According to patent publication US10383955B2, “Human mast cell lines, preparation and uses” (CENTRE NATIONAL DE LA RECHERCHE SCIENTIFIQUE, priority 2011, dated 2019):
Entries after “also recorded” stand apart in the source; their conditions may differ.

Columns and labels:
[1] = system: cells of the ROSA KIT WT line; assay: β-hexosaminidase release after stimulation; type: cell-based, human; settings: cells treated with IL-4 20 ng/ml and IgE 2 μg/ml; anti-IgE 5 μg/ml or calcium ionophore 1 μmol/l, 1 hour
Experimental: The activation of the cells of the ROSA KIT WT line was also measured by determining the released β-hexosaminidase activity. ROSA cells treated with IL-4 (20 ng/ml) and IgE (2 μg/ml) are subsequently activated for 1 hour at 37° C. in the presence of 5% CO2, with the anti-IgE antibody (5 μg/ml) or with the calcium ionophore (Cai) (1 μmol/l).
The cells are then centrifuged and the supernatants are recovered and frozen at −80° C. until the time of the assay. The cells are then lysed. The β-hexosaminidase activity is measured in the supernatant and also in the cell pellet as described by Schwartz and Austen, J Invest Dermatol., 74, 349-353, 1980.
The hydrolysis of p-nitrophenyl-2-acetamido-2-deoxy-β-D-glucopyranoside (or 4-nitrophenyl-N-acetyl-β-D-glucosaminide) by β-hexosaminidase leads to the release of a chromophore product: p-nitrophenol. The latter is measured by spectrophotometry at 405 nm. • 50 μl of p-nitrophenyl-2-acetamido-2-deoxy-β-D-glucopyranoside (Sigma) are added to 5 μl of supernatant • Incubation for 2 hours at 37° C. with stirring. • Addition of 150 μl of stop solution (7.5 g of glycine in 500 ml of H2O, pH=10.7). Reading at 405 nm.

[2] = system: cells of the ROSA KIT WT line; assay: Membrane CD203c expression after stimulation (flow cytometry); type: cell-based, human; settings: cells treated with IL-4 + IgE 5 days; anti-IgE 5 or 10 μg/ml or calcium ionophore 1 μmol/l, 1 hour
Experimental: In order to know whether the cells of the ROSA KIT WT line can be activated by the IgE-anti-IgE antibody coupling, resulting in degranulation with immediate release of histamine and of β-hexosaminidase associated with a significant increase in membrane CD203c expression and with delayed release of TNF-alpha, cells are treated with IL-4 (20 ng/ml) and IgE (2 μg/ml) (Merck Bioscience) for 5 days and then stimulated with anti-IgE (5 or 10 μg/ml) (Biovalley) or with the calcium ionophore (Cai) (Sigma) (1 μmol/l) for 1 or 6 hours. The 1 hour supernatant and also the pellet are used to assay the histamine and to measure the expression of CD203c at the cell surface, while the TNF-alpha is measured by a specific ELISA method in the supernatant of the cells after 6 hours of stimulation.
One ml of cells treated with IL-4 (20 ng/ml) and IgE (2 μg/ml) for 5 days are washed twice with 3 ml of PBS and then again placed in culture medium at a concentration of 1×10^6 cells/ml. These cells are then stimulated with anti-IgE (5 or 10 μg/ml) or with the calcium ionophore (Cai) (1 μmol/l) for 1 hour. The cells are washed with PBS and put back into 100 μl of PBS, 1% FCS in the presence of an antibody directed against human CD203c, coupled to phycoerythrin (PE) (20 μl/l million cells) (Biolegend).

[3] = in therapy; cited from earlier work
ROSA KIT WT line = assay: Proliferation of ROSA KIT WT line with tyrosine kinase inhibitors (WST-1); type: cell-based; settings: 1 μM/l, 48 hours, medium with human SCF 80 ng/ml, relative to DMSO 0.1%
Experimental: (§1) Finally, the inventors evaluated the effect of two molecules which inhibit tyrosine kinase activity, imatinib and dasatinib (both supplied by Sequoia Research), on the proliferation of the 3 ROSA KIT WT, ROSA KIT D816V and ROSA KIT Delta 417-419 insY lines. To do this, the cells were seeded at a starting concentration of 3×10^5 cells per ml in 96-well plates (100 μl per well) and incubated at 37° C. in an incubator (5% CO2 in air) for 48 hours in the presence of 1 μM/l of imatinib or of dasatinib (in DMSO brought to a final concentration of 0.1%) or in the presence of DMSO alone (0.1% final concentration) in their usual culture medium (containing human SCF at 80 ng/ml for the ROSA KIT WT line but without SCF for the ROSA KIT D816V and ROSA KIT Delta 417-419 insY lines). At the end of this incubation, 10 μl of WST-1 (Roche Applied Science) are added to each well and the cells are incubated for a further 3 hours in an incubator at 37° C. The number of live cells is then measured for each condition by reading the absorbance at 450 nm using a Multiskan MS plate reader (Thermo LabSystems).
(§2) The results obtained for each line (presented in FIG. 15) are expressed as % of live cells (the condition DMSO alone at 0.1% final concentration being considered to contain 100% of live cells).

[4] = system: ROSA KIT Delta 417-419 insY line; assay: Proliferation of ROSA KIT Delta 417-419 insY line with tyrosine kinase inhibitors (WST-1); type: cell-based, human; settings: 1 μM/l, 48 hours, without SCF, relative to DMSO 0.1%
Experimental: as §1, §2

ROSA KIT D816V line = assay: Proliferation of ROSA KIT D816V line with tyrosine kinase inhibitors (WST-1); type: cell-based, human; settings: 1 μM/l, 48 hours, without SCF, relative to DMSO 0.1%
Experimental: as §1, §2

[5] = system: HMC-1, subclone HMC-1.1 (KIT V560G); settings: juxtamembrane KIT V560G mutation; cited from earlier work
[6] = system: subclone HMC-1.2 (KIT V560G and D816V); settings: two KIT mutations (V560G and D816V); cited from earlier work
KIT D816V mutation = KIT D816V mutation (Homo sapiens, UniProt P10721, D816V); settings: cited from earlier work
Sequence of KIT D816V mutation (P10721 26-976 D816V): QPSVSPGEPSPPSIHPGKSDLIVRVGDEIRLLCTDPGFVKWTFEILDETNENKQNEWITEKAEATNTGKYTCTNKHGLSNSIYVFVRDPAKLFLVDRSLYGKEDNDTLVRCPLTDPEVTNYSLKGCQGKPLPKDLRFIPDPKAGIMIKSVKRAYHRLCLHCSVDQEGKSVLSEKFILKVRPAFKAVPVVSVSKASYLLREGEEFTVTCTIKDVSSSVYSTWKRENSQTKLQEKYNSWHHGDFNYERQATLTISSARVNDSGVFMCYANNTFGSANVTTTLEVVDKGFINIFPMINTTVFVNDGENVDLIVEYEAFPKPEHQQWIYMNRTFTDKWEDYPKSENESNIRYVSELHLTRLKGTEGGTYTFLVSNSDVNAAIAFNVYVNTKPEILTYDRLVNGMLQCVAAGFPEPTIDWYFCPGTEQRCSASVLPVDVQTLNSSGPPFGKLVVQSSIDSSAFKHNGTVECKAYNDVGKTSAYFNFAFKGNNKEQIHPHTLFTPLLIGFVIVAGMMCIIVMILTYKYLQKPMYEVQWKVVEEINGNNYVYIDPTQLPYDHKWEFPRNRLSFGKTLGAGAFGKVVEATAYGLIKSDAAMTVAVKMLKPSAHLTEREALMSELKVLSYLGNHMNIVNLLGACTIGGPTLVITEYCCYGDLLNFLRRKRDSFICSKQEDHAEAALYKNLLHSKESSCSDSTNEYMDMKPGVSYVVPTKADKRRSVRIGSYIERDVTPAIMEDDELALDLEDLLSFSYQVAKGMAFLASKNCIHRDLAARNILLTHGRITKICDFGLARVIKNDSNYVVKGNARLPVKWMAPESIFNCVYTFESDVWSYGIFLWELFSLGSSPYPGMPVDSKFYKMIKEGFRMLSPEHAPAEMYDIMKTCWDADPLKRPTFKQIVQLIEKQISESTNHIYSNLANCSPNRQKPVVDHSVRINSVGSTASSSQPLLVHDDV

[7] = system: cells of the ROSA KIT WT line; assay: FcεRI and KIT expression after IL-4 treatment (flow cytometry); type: cell-based, human; settings: IL-4 20 ng/ml for 5 days
Experimental: Since it has been shown in the literature that interleukin-4 (IL-4) induces a decrease in KIT expression and an increase in FcεR1 expression by normal human mast cells, the inventors wanted to verify whether this phenomenon could also be observed on the ROSA KIT WT line. For this, they used the following technique: • 10 ml of cells in culture at approximately 2×10^5 cell/ml are used for each tube. • The cells are centrifuged and the pellet is taken up in 10 ml of new culture medium and then the cells are treated with IL-4 (20 ng/ml) (R&D) for 5 days. • The cells are centrifuged in order to remove the culture medium. • The pellets are taken up in 100 μl of PBS+1% FCS, and incubated for 45 min at +4° C. in the presence of anti-human IgE antibody coupled to FITC (20 μl/l million cells (Merck Bioscience)), or in the presence of anti-human KIT antibody coupled to APC (20 μl/l million cells) (Biolegend). • Two rinses are carried out in 3 ml of PBS, 0.1% FCS, and then the tubes are centrifuged. • The pellets are collected in 300 μl of PBS, 0.1% FCS.
The reading is carried out by FACS (BD FACSCalibur).

[8] = system: ROSA KIT WT, ROSA KIT Delta 417-419 insY and KIT D816V lines; assay: Membrane marker expression in the three ROSA lines (flow cytometry); type: cell-based, human; settings: IL-4 20 ng/ml
Source text: Moreover, the expression of certain membrane markers present on the cells of the ROSA KIT Delta 417-419 insY and KIT D816V lines, optionally present in the presence of SCF, was studied by flow cytometry, this expression being compared with that of the cells of the ROSA KIT WT line. The results obtained (presented in FIG. 12) were the following: • the cells of the ROSA KIT Delta 417-419 insY and KIT D816V lines spontaneously express (in the absence of SCF) more CD38, CD203c and KIT than the cells of the ROSA KIT WT line, this increase in expression being completely abolished in the presence of SCF, • the cells of the KIT D816V line express more CD54 than the cells of the other two lines, whether in the absence or in the presence of SCF, • the cells of the KIT D816V line express more FcεR1 than the cells of the other two lines in the absence of SCF, this phenomenon being abolished by adding SCF, • the cells of the ROSA KIT Delta 417-419 insY and KIT D816V lines express, in the presence of SCF, more CD63 than the cells of the ROSA KIT WT line, this increase in expression being completely abolished in the absence of SCF, • the expression of CD53 and of FcεR1 is increased in the 3 lines by treatment with IL-4 (20 ng/ml), and • the expression of KIT is decreased in the three lines by treatment with IL-4 (20 ng/ml).

CNc1ccc2oc(C[C@H]3O[C@@]4(CC[C@H]3C)O[C@H]([C@H](C)C(=O)c3ccc[nH]3)[C@H](C)C[C@H]4C)nc2c1C(=O)O [calcium ionophore, calcium ionophore A23187]
β-hexosaminidase release, of the total enzyme content of the cells [1]: up to 80%
membrane CD203c expression [2]: increase

Cc1nc(Nc2ncc(C(=O)Nc3c(C)cccc3Cl)s2)cc(N2CCN(CCO)CC2)n1 [dasatinib]
toxicity in humans [3]: high toxicity

Cc1ccc(NC(=O)c2ccc(CN3CCN(C)CC3)cc2)cc1Nc1nccc(-c2cccnc2)n1 [imatinib]
inhibition of proliferation (% of live cells) (ROSA KIT WT line): sensitive
inhibition of proliferation (% of live cells) [4]: sensitivity
inhibition of proliferation (% of live cells) ([4]; listed as Imatinib): sensitive
inhibition of proliferation (% of live cells) (ROSA KIT D816V line): resistance; also recorded: incapable of inhibiting the proliferation
sensitivity of the line [5]: sensitive
sensitivity of the line [6]: not
activity on the KIT D816V mutation (KIT D816V mutation): completely inactive

IL-4: interleukin-4 cytokine (R&D)
KIT expression [7]: decrease
expression of the high-affinity IgE receptor [7]: increase
expression of CD53 ([8]; in the 3 lines): increased
expression of FcεR1 ([8]; in the 3 lines): increased
expression of KIT ([8]; in the three lines): decreased
